{"source": "patent US9549941B2", "about": "“Compositions and methods for treating hepatitis C virus” (priority 2011, dated 2017)", "key": {"[1]": {"system": "1a-H77 sub-genomic replicon, NS5B S282T", "assay": "microbe, parasite or virus in culture", "assay_type": "cell-based, hepatitis C virus", "procedure": "(§1) (Lam et al., J. Virology (2011) 85(23): 12334-12342; Lam et al., Antimicrob. Agents Chemother. (2012) 56(6): 3359-3368.) S282T mutations in NS5B were created by site-directed mutagenesis in 1a-H77, 1b con-1, and 2a JFH1 sub-genomic replicons. 1b con-1-based chimeric replicons containing 2b, 3a, 4a, 5a, or 6a NS5B were also engineered to harbor the S282T mutation. […] Relative percentages of mutant and WT were assessed by deep sequencing."}, "[2]": {"system": "HCV NS5B S282T", "assay": "GS-7977 resistance in Phase 2 clinical studies, population and deep sequencing of NS5B", "assay_type": "in vivo, human", "conditions": "one GT2b patient, relapse 4 weeks after 12 weeks of monotherapy"}, "[3]": {"system": "1a-H77 sub-genomic replicon, wild-type NS5B", "assay": "Transient replicon assay", "assay_type": "cell-based", "conditions": "Hepatitis C virus, read-out: EC50 WT", "procedure": "as §1"}, "[4]": {"system": "2a JFH1 sub-genomic replicon, NS5B S282T", "assay_type": "cell-based, hepatitis C virus", "conditions": "genotype 2a, S282T from corresponding wild-type", "procedure": "as §1"}, "[5]": {"system": "1b con-1-based chimeric replicon containing 4a NS5B S282T", "assay_type": "cell-based, hepatitis C virus", "conditions": "genotype 4a, S282T from corresponding wild-type", "procedure": "as §1"}, "[6]": {"system": "1b con-1 sub-genomic replicon, NS5B S282T", "assay_type": "cell-based, hepatitis C virus", "conditions": "genotype 1b, S282T from corresponding wild-type", "procedure": "as §1"}, "[7]": {"system": "1b con-1-based chimeric replicon containing 5a NS5B S282T", "assay_type": "cell-based, hepatitis C virus", "conditions": "genotype 5a, S282T from corresponding wild-type", "procedure": "as §1"}, "[8]": {"system": "1b con-1-based chimeric replicon containing 3a NS5B S282T", "assay_type": "cell-based, hepatitis C virus", "conditions": "genotype 3a, S282T from corresponding wild-type", "procedure": "as §1"}, "[9]": {"system": "HCV GT2 or GT3", "assay": "ELECTRON Phase 2a clinical study, treatment-naive GT2/GT3 (Groups 1-6, 10)", "assay_type": "in vivo, human", "conditions": "for HCV RNA (log10 IU/mL), mean: GT2/GT3 Tx-naive, N=10; for HCV RNA below LOD, %: Genotype 2/3 Treatment Naive (Groups 1-6); for % < LOD / n/N < LOD: Groups 1-5, GT2/GT3 Tx-naive", "procedure": "In comparison, only 60% of treatment-naïve GT2/GT3 HCV patients receiving GS-7977 monotherapy achieved SVR-12.\nGroup 1: GS-7977 (400 mg QD) with RBV (1000/1200 mg BID) for 12 weeks (no peginterferon) (GT2/GT3 treatment-naïve); and\nGroups 2, 3, 4: GS-7977 (400 mg QD) with RBV (1000/1200 mg BID) for 12 weeks and PEG (180 μg weekly) weeks 1-4 only/PEG (180 μg weekly) weeks 1-8 only/PEG (180 μg weekly) weeks 1-12 (GT2/GT3 treatment-naïve).\nIn Part 2 of the ELECTRON trial, an additional 30 patients were enrolled in exploratory regimens of GS-7977 monotherapy and abbreviated durations of total therapy with the combination of GS-7977, RBV and PEG:\nGroup 5: GS-7977 (400 mg QD) monotherapy for 12 weeks (GT2/GT3 treatment-naïve);\nGroup 6: GS-7977 (400 mg QD) with PEG (180 μg weekly) and RBV (1000/1200 mg BID) for 8 weeks (GT2/GT3 treatment-naïve); and\nGroup 10: GS-7977 (400 mg QD) with RBV (1000/1200 mg BID) for 8 weeks (GT2/GT3 treatment-naïve); and […]"}, "[10]": {"system": "mixture of 50% S282T and 50% WT in GT2a replicons", "assay": "Long-term passaging study with deep sequencing", "assay_type": "cell-based, hepatitis C virus", "set-up": "population mutant S282T: concentration or dose not given beside the values", "conditions": "over fifteen days", "text": "as §1, with “In vitro studies have shown that S282T is the primary mutation selected by GS-7977 in HCV genotype 1a, 1b and 2a replicon cells. (Lam” for “(Lam”\n(See also Han et al., 63rd Annual Meeting of the American Association for the Study of Liver Diseases, Poster 1078, Nov. 11, 2012.)"}, "[11]": {"assay": "ELECTRON Grade 3/4 hematologic (laboratory) abnormalities", "assay_type": "in vivo, human", "conditions": "Groups 1-6 (GT2/GT3 Tx-naive)"}}, "note": "pEC50: −log10 of the molar value.", "data": [{"compound": "CC(C)OC(=O)[C@H](C)N[P@](=O)(OC[C@H]1O[C@@H](n2ccc(=O)[nH]c2=O)[C@](C)(F)[C@@H]1O)Oc1ccccc1", "note": "[GS-7977, (S)-isopropyl 2-(((S)-(((2R,3R,4R,5R)-5-(2,4-dioxo-3,4-dihydropyrimidin-1(2H)-yl)-4-fluoro-3-hydroxy-4-methyltetrahydrofuran-2-yl)methoxy)(phenoxy)phosphoryl)amino)propanoate]", "values": [{"measurement": "pEC50", "setting": "[1]; Hepatitis C virus, read-out: EC50 S282T", "result": 6.60}, {"measurement": "Fold Change", "setting": "[1]; genotype 1a, S282T from corresponding wild-type", "result": 10.1}, {"measurement": "S282T at relapse by deep sequencing", "setting": "[2]", "result": 99, "unit": "%"}, {"measurement": "pEC50", "setting": "[3]", "result": 7.60}, {"measurement": "Fold Change", "setting": "[4]", "result": 2.4}, {"measurement": "Fold Change", "setting": "[5]", "result": 6.1}, {"measurement": "Fold Change", "setting": "[6]", "result": 8.8}, {"measurement": "Fold Change", "setting": "[7]", "result": 14.35}, {"measurement": "Fold Change", "setting": "[8]", "result": 3.5}, {"measurement": "HCV RNA (log10 IU/mL), mean", "setting": "[9]; D1", "result": 5.74, "unit": "log10 IU/mL"}, {"measurement": "HCV RNA (log10 IU/mL), mean", "setting": "[9]; D1 (6 hr) after dosing", "result": 5.63, "unit": "log10 IU/mL"}, {"measurement": "HCV RNA (log10 IU/mL), mean", "setting": "[9]; D1 (12 hr) after dosing", "result": 4.98, "unit": "log10 IU/mL"}, {"measurement": "HCV RNA (log10 IU/mL), mean", "setting": "[9]; D2", "result": 3.75, "unit": "log10 IU/mL"}, {"measurement": "HCV RNA (log10 IU/mL), mean", "setting": "[9]; D3", "result": 2.62, "unit": "log10 IU/mL"}, {"measurement": "HCV RNA (log10 IU/mL), mean", "setting": "[9]; T = 0 (initial screening values)", "result": 6.08, "unit": "log10 IU/mL"}, {"measurement": "HCV RNA (log10 IU/mL), mean", "setting": "[9]; W1", "result": 1.56, "unit": "log10 IU/mL"}, {"measurement": "HCV RNA (log10 IU/mL), mean", "setting": "[9]; W2", "result": 1.22, "unit": "log10 IU/mL"}, {"measurement": "HCV RNA (log10 IU/mL), mean", "setting": "[9]; W3", "result": 1.15, "unit": "log10 IU/mL"}, {"measurement": "HCV RNA (log10 IU/mL), mean", "setting": "[9]; W4", "result": 1.15, "unit": "log10 IU/mL"}, {"measurement": "HCV RNA (log10 IU/mL), mean", "setting": "[9]; W5", "result": 1.15, "unit": "log10 IU/mL"}, {"measurement": "HCV RNA (log10 IU/mL), mean", "setting": "[9]; W6", "result": 1.15, "unit": "log10 IU/mL"}, {"measurement": "HCV RNA (log10 IU/mL), mean", "setting": "[9]; W7", "result": 1.15, "unit": "log10 IU/mL"}, {"measurement": "HCV RNA (log10 IU/mL), mean", "setting": "[9]; W8", "result": 1.15, "unit": "log10 IU/mL"}, {"measurement": "HCV RNA (log10 IU/mL), mean", "setting": "[9]; W9", "result": 1.15, "unit": "log10 IU/mL"}, {"measurement": "HCV RNA (log10 IU/mL), mean", "setting": "[9]; W10", "result": 1.15, "unit": "log10 IU/mL"}, {"measurement": "HCV RNA (log10 IU/mL), mean", "setting": "[9]; W11", "result": 1.15, "unit": "log10 IU/mL"}, {"measurement": "HCV RNA (log10 IU/mL), mean", "setting": "[9]; W12 (end of treatment)", "result": 1.15, "unit": "log10 IU/mL"}, {"measurement": "HCV RNA (log10 IU/mL), mean", "setting": "[9]; W14 (after 12-week treatment)", "result": 1.66, "unit": "log10 IU/mL"}, {"measurement": "HCV RNA (log10 IU/mL), mean", "setting": "[9]; W16 (after 12-week treatment)", "result": 2.95, "unit": "log10 IU/mL"}, {"measurement": "HCV RNA (log10 IU/mL), mean", "setting": "[9]; W20 (after 12-week treatment)", "result": 3.12, "unit": "log10 IU/mL"}, {"measurement": "HCV RNA (log10 IU/mL), mean", "setting": "[9]; W24 (12 weeks after treatment)", "result": 3.17, "unit": "log10 IU/mL"}, {"measurement": "HCV RNA below LOD, %", "setting": "[9]; SVR-4", "result": "(60) %"}, {"measurement": "HCV RNA below LOD, %", "setting": "[9]; SVR-12", "result": "(60) %"}, {"measurement": "HCV RNA below LOD, %", "setting": "[9]; Time 1 wk", "result": "(50) %"}, {"measurement": "HCV RNA below LOD, %", "setting": "[9]; Time 2 wks", "result": "(80) %"}, {"measurement": "HCV RNA below LOD, %", "setting": "[9]; Time 3 wks", "result": "(100) %"}, {"measurement": "HCV RNA below LOD, %", "setting": "[9]; Time 4 wks", "result": "(100) %"}, {"measurement": "HCV RNA below LOD, %", "setting": "[9]; Time 8 wks", "result": "(100) %"}, {"measurement": "HCV RNA below LOD, %", "setting": "[9]; Time 12 wks", "result": "(100) %"}, {"measurement": "% < LOD", "setting": "[9]; SVR-4", "result": 60, "unit": "%"}, {"measurement": "n/N < LOD", "setting": "[9]; SVR-4", "result": "6/10"}, {"measurement": "% < LOD", "setting": "[9]; SVR-8", "result": 60, "unit": "%"}, {"measurement": "n/N < LOD", "setting": "[9]; SVR-8", "result": "6/10"}, {"measurement": "% < LOD", "setting": "[9]; SVR-12", "result": 60, "unit": "%"}, {"measurement": "n/N < LOD", "setting": "[9]; SVR-12", "result": "6/10"}, {"measurement": "% < LOD", "setting": "[9]; SVR-24", "result": 60, "unit": "%"}, {"measurement": "n/N < LOD", "setting": "[9]; SVR-24", "result": "6/10"}, {"measurement": "% < LOD", "setting": "[9]; Time 0 wks", "result": 0, "unit": "%"}, {"measurement": "% < LOD", "setting": "[9]; Time 4 wks", "result": 100, "unit": "%"}, {"measurement": "n/N < LOD", "setting": "[9]; Time 4 wks", "result": "10/10"}, {"measurement": "% < LOD", "setting": "[9]; Time 8 wks", "result": 100, "unit": "%"}, {"measurement": "n/N < LOD", "setting": "[9]; Time 8 wks", "result": "10/10"}, {"measurement": "% < LOD", "setting": "[9]; Time 12 wks", "result": 100, "unit": "%"}, {"measurement": "n/N < LOD", "setting": "[9]; Time 12 wks", "result": "10/10"}, {"measurement": "SVR-24", "setting": "[9]; treatment-naive GT2/GT3, 12 weeks GS-7977 400 mg QD", "result": 60, "unit": "%"}, {"measurement": "SVR-12", "setting": "[9]; treatment-naive GT2/GT3 HCV patients, GS-7977 400 mg QD", "result": 60, "unit": "%"}, {"measurement": "population mutant S282T", "setting": "[10]", "result": 92, "unit": "%"}, {"measurement": "Alanine aminotransferase Grade 3: n", "setting": "[11]", "result": 0}, {"measurement": "Hemoglobin Grade 3: n", "setting": "[11]", "result": 0}, {"measurement": "INR Grade 3: n", "setting": "[11]", "result": 0}, {"measurement": "Lymphocytes Grade 3: n", "setting": "[11]", "result": 0}, {"measurement": "Lymphocytes Grade 4: %", "setting": "[11]", "result": 10, "unit": "%"}, {"measurement": "Lymphocytes Grade 4: n", "setting": "[11]", "result": 1}, {"measurement": "Neutropenia Grade 3: n", "setting": "[11]", "result": 0}, {"measurement": "Neutropenia Grade 4: n", "setting": "[11]", "result": 0}, {"measurement": "White blood cells Grade 3: n", "setting": "[11]", "result": 0}]}]}
